In patent publication US20020150553A1, “Compositions containing C-terminal polypeptides of angiogenic chemokines and methods of use” (The Regents of the University of California, priority 1999, published 2002):

Columns and labels:
[1] = Time-dependent release of the 9E3 peptide from methylcellulose pellets; assay type: physicochemical; conditions: 300 ng 125I-labeled peptide in 0.5% methylcellulose pellet, PBS, 37° C.
Description: Samples of 280 μl of saline were removed periodically for scintillation counting and replaced by fresh saline. Error bars represent the standard deviation for 15 samples taken at each time point.
Methylcellulose pellets containing either form of the peptide at different concentrations were placed on mature CAMs [see Martins-Green M, Feugate J E (1998) The 9E3/CEF4 gene product is a chemotactic and angiogenic factor that can initiate the wound healing cascade in vivo. Cytokine 10:522-535]. Because the peptide is much smaller than cCAF itself, it is possible that release from the pellet might be much more rapid than for the entire molecule. Therefore, before performing the experiments on the CAM we determined the kinetics of release of the C-terminal peptide from pellets under reducing conditions for which the peptide will be a monomer and therefore of smallest size.
Five microliters of 0.5% methylcellulose (Fisher) containing 300 ng of ^125I-labeled 9E3 peptide were placed in the bottom of 15 Eppendorf tubes (0.5 ml), allowed to dry and then covered with 300 μl of sterile PBS containing 0.02% sodium azide and incubated at 37° C. […] The label released into the fluid was counted in a scintillation counter to determine if and over what period of time the peptide was released.

[2] = system: blood vessels of the chorioallantoic membrane (CAM); assay: Angiogenesis assays in the CAM (chorioallantoic membrane); assay type: in vivo, chicken; conditions: for percent of blood vessels oriented towards the pellet minus percent directed away: cCAF peptide 100-300 ng; for angiogenesis / oriented blood vessel growth after preincubation with antibody: peptide (100-300 ng) preincubated with excess of an antibody prepared against it; for new sprouting of blood vessels of the CAM: 4 days after application
Description: (§1) These assays were done as previously described [Martins-Green et al. (1998)]. Briefly, fertilized chicken eggs were incubated for 3 days at 37° C., at which time 2 ml of albumin were withdrawn to drop the embryo and CAM away from the shelf. Windows were made on day 4, the holes covered with transparent tape, and the eggs placed back in the incubator until day 10 when the experiment was performed. Pellets were prepared by mixing the appropriate amount of reduced and non-reduced 9E3 peptides or bFGF with 1% methylcellulose (1:1) and then delivering 5-μl droplets on a bacterial dish and allowing them to dry in a sterile hood for approximately 30 min. This procedure generated small disc-shaped pellets 2 mm in diameter and ˜0.1 mm thick. These pellets containing various concentrations of protein were placed, under sterile conditions, between two large blood vessels of the 10-day-old CAMs. Two or four days later, the pellets and the surrounding area of the CAM were fixed in situ; the CAMs were then removed and examined for the presence of chemotaxis and/or angiogenesis. Angiogenesis was quantified by analysis of blood vessel orientation and/or increase in the number of vessels and sprouts (see below). Negative control pellets were prepared in the same way with 0.5% methylcellulose alone or with the same concentration of BSA as used for the cCAF peptide or with peptide preincubated with an antibody made against it [Martins-Green et al. (1992)].
As previously described, 10-day-old CAMs were used because at this stage of development the CAM close to the embryo is fully developed; the blood vessels in this area have stopped growing and assumed a tree-like pattern with short stubby tertiary branches (FIG. 2A). […] [Martins-Green et al. (1997); Vu M T, Smith C F, Burger P C, Klintworth G K (1985) Methods in laboratory investigation. An evaluation of methods to quantitate the chick chorioallantoic membrane assay in angiogenesis. Lab Invest 4:499-508; Klagsbrun M, D'Amore P A (1991) Regulators or angiogenesis. Annu Rev Physiol 53:217-239; Cockerill G W, Gamble J R, Vadas M A (1995) Angiogenesis: models and modulators. Interntl Rev Cytol 1.59:113-160; and Swerlick R A (1995) Angiogenesis. J Dermatol 22:845-852.]
The CAMs were then analyzed by making measurements of the orientation of the blood vessels relative to the pellet. For each concentration of the C-terminal peptide and for all controls, 6-10 CAMs were measured. Vessels were classified (FIG. 2A) as primary (largest), secondary (branches of primary vessels) and tertiary (all other vessels). […] The measurements were made without prior knowledge of which specimens were controls and which were cCAF. For secondary vessels; we looked for deviations in their orientations. For tertiary vessels, each vessel was approximated by a vector pointing in its growth direction. Each vector was resolved into components directed radially and tangentially with respect to the pellet; the definition of toward or away was determined from the radial component of the vector. For graphical presentation of the data, the percent of blood vessels growing toward the pellet was determined for secondary and tertiary vessels (FIG. 5).
Quantification of blood vessel sprouting was performed as described previously [Martins-Green et al. (1998)]. Briefly, a sprout was defined as a very small blood vessel having a length of one third or less that of the tertiary branches of the normal CAM. Sprouts thus defined were counted in the areas of the CAMs with pellets containing 1000 ng of C-terminal peptide. For CAMs treated with 1000 ng/pellet of C-terminal peptide, we counted sprouts on 90 mm total of 21 individual blood vessel segments from 6 different CAMs. For the BSA controls we counted sprouts on 123 mm of 24 segments of blood vessels.

[3] = system: leukocytes; assay: Chemotaxis for leukocytes and tissue changes in cross sections of treated CAMs; assay type: in vivo, chicken; conditions: for chemotaxis for leukocytes: 100 ng
Description: The cells inside the large blood vessel are erythrocytes (these chicken cells are nucleated). […] (C) Natural CAM showing sparse cells and a single blood vessel. Scale bars=100 μm.
as §1
Although the general structure of treated and untreated CAMs is the same, some differences were seen.

[4] = system: blood vessels of wing muscle tissue; assay: Angiogenic assays in 2-week-old chicks (peptide deposited under the skin of the wing); assay type: in vivo, chick; conditions: 1 μg/10 μl under the skin of the wing on two consecutive days, four days after first dose
Description: Hematoxylin and eosin stained cross sections of wing muscle tissue showing organization of the muscle fibers. (A) Very few blood vessels (arrowheads) can be seen amongst the untreated muscle fibers. A large nerve bundle can be seen (black dot) associated with three small blood vessels. (B) Similar section taken from the wing of a bird that has been treated with the C-terminus peptide. Note the presence of numerous small blood vessels (arrowheads) amongst the muscle fibers. (C) Similar section from a bird treated with only buffer vehicle for the peptide. The number of blood vessels (arrowheads) is similar to that of the control. Scale bar=50 μm.
To further test the angiogenic potential of the C-terminal peptide, 1 μg of the peptide in 10 μl of water was deposited under the skin of the underside of the wing of 2-week-old chicks on two consecutive days, and the tissues prepared for histology on the fourth day.
The C-terminal peptide was deposited under the skin of the under wing of […] chicks using a procedure described previously [Martins-Green M, Boudreau N, Bissell M J (1994) Inflammation is responsible for the development of wound tumors in RSV-infected newly-hatched chicks. Cancer Res 54:4334-4341]. Two samples of 1 μg/10 μl each, were applied on two consecutive days followed by a waiting period of 3 days. […]

[5] = supernatant of normal cultures of CEFs; cited from earlier work
[6] = higher doses, 600-1000 ng/pellet
[7] = CAM cross sections two days after application of pellets

C-terminal peptide: last 28 aas of the C-terminus of cCAF (residues 76 to 103 of SEQ ID NO:1), with cysteine No. 4 as N-terminal most aa (CLDPTAPWVQLIVKALMAKAQLNSDAPL; Gallusgallus)
duration of slow, prolonged release from the pellet [1]: up to 48 h
period in which the majority of the peptide was released from the pellet ([1]; reducing conditions (monomer)): ≤ 6 h
number of new sprouts relative to CAMs treated with BSA ([2]; 1000 ng/pellet): about 10 times
blood vessel growth towards the pellet ([2]; 100-300 ng per pellet): stimulated the blood vessels to grow towards the pellet
tortuosity and sprouting effects after preincubation with antibody ([2]; 600-1000 ng/pellet, peptide preincubated with excess antibody directed against it): eliminated
percent of blood vessels oriented towards the pellet minus percent directed away ([2]; bFGF 500 ng): marked blood vessel orientation toward the pellet
reorientation of blood vessels [2, 6]: greatly decreased
sprouting of blood vessels [2, 6]: abundant sprouting
tortuosity of blood vessels [2, 6]: marked tortuosity
most effective doses (significant increase in angiogenic activity: tortuosity and sprouting) ([2]; localized administration in CAM assay): > 450 ng
percentage of CAMs showing reorientation and/or growth of blood vessels towards the pellet ([2]; non-reduced peptide): 94%
percentage of CAMs showing reorientation and/or growth of blood vessels towards the pellet ([2]; non-reduced peptide, listed as cCAF peptide): ~100%
angiogenesis / oriented blood vessel growth after preincubation with antibody [2]: the effect was eliminated
angiogenesis / oriented blood vessel growth after preincubation with antibody ([2]; listed as cCAF peptide): no angiogenesis was seen
percentage of CAMs showing reorientation and/or growth of blood vessels towards the pellet ([2]; peptide under reducing conditions): 96%
percentage of CAMs showing reorientation and/or growth of blood vessels towards the pellet ([2]; peptide under reducing conditions, listed as cCAF peptide): ~100%
most effective dose for oriented growth of secondary blood vessels ([2]; per pellet, secondary vessels): ~100 ng
most effective dose for oriented growth of tertiary blood vessels ([2]; per pellet, tertiary vessels): ~300 ng
hyperproliferation of the ectoderm of the CAM [3, 7]: slightly hyperproliferated
chemotaxis for leukocytes [3, 7]: no chemotaxis for leukocytes
leukocyte chemotaxis or granulation-like tissue formation ([3]; in vivo, CAM and chick wing): no evidence was found
small blood vessels in muscle tissue underlying the site of application versus vehicle and normal wing [4]: many more small blood vessels

IL-8: interleukin 8, ELR-CXC chemokine (SEQ ID NO:3)
new sprouting of blood vessels of the CAM ([2]; 500 ng per pellet): extensive new sprouting

bFGF: Basic fibroblast growth factor, positive control in the CAM assay [reference compound]
percent of blood vessels oriented towards the pellet minus percent directed away ([2]; bFGF 500 ng): marked blood vessel orientation toward the pellet
percentage of CAMs showing reorientation and/or growth of blood vessels towards the pellet ([2]; positive control, 500 ng/pellet): 100%
percent of secondary vessels deviated toward the pellet ([2]; secondary vessels, bFGF 500 ng): over 90%
percent of tertiary vessels pointing in the direction of the pellet ([2]; tertiary vessels, bFGF 500 ng): less than 80%

B1: cCAF: Chicken chemotactic and angiogenic factor, product of the 9E3 gene, 9 kDa CXC chemokine (SEQ ID NO:1) (protein)
chain: MNGKLGAVLALLLVSAALSQGRTLVKMGNELRCQCISTHSKFIHPKSIQDVKLTPSGPHCKNVEIIATLKDGREVCLDPTAPWVQLIVKALMAKAQLNSDAPL
modifications: Gallusgallus
new sprouting of blood vessels of the CAM ([2]; 450 ng per pellet): extensive new sprouting
chemotaxis for leukocytes [3, 7]: chemotactic for monocyte/macrophages and lymphocytes
period for which the 9 kDa form is stable [5]: 24 h
